IC50 data for 25 compounds are collected here from US8178570B2, “Tie-2 modulators and methods of use” (Exelixis, Inc., priority 2003, dated 2012).

The structures appear in SMILES notation.

The target of this experiment is Tie-2 (Homo sapiens, UniProt Q02763). Briefly: Tie-2 tyrosine kinase activity: kinase-dependent ATP consumption (pEY substrate, luciferase/luciferin chemiluminescence) or 33P-ATP incorporation into substrate. It counts as biochemical. To be noted: Tie-2 (human enzyme) inhibition, Table 2, class symbols A-D. In a few lines: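 Values are IC50 categories: A below 50 nM, B above 50 to 1000 nM, C above 1000 to below 10,000 nM, D 10,000 nM or more. They were measured by 33P-ATP phosphate transfer onto a generic substrate bound to the plate (scintillation), or by luminescent luciferase detection of ATP used with pEY.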
Sequence of Tie-2 (Q02763 23-1124): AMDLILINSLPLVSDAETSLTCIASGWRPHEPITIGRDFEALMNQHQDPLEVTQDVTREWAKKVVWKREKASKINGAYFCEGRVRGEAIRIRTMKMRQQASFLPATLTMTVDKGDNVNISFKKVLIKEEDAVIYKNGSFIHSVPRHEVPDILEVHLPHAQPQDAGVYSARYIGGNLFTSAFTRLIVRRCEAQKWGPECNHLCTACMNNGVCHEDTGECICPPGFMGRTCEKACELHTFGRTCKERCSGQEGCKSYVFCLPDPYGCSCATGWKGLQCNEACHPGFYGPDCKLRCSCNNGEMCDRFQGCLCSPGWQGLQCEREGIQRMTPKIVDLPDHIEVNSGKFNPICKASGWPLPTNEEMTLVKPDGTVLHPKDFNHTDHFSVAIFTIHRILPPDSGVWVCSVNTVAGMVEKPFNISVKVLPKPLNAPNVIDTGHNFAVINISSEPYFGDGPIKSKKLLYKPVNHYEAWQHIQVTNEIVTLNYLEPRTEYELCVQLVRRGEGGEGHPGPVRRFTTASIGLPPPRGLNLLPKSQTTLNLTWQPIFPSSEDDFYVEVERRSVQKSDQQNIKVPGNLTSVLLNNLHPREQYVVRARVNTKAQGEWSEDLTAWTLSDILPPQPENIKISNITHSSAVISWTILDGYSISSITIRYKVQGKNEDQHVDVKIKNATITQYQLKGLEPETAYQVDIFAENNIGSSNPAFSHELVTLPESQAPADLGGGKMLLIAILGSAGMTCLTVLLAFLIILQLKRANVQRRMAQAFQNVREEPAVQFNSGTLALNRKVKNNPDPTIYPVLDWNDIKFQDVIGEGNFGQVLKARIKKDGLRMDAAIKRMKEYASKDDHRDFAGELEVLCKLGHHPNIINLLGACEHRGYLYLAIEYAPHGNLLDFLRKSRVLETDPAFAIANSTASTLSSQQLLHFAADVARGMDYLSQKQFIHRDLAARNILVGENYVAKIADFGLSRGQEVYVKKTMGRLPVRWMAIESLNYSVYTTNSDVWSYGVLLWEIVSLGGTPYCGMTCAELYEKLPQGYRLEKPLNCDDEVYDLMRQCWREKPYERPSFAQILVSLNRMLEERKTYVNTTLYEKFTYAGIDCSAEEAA
In general, IC50 refers to the concentration needed to halve the response being measured. Higher therefore signals weaker potency in that assay. With `Cc1nc(-c2ccnc(N3CCOCC3)c2)nn1CCN(C(=O)Cc1cccc2ccccc12)C1CCCC1` [Entry 163, N-cyclopentyl-N-{2-[5-methyl-3-(2-morpholin-4-ylpyridin-4-yl)-1H-1,2,4-triazol-1-yl]ethyl}-2-naphthalen-1-ylacetamide], the IC50 lay in the range of 1 to 10 µM.
`Cc1nc(-c2ccnc(NCCN(C)C)c2)nn1CCN(C(=O)Cc1cccc2ccccc12)C1CCCC1` [Entry 164, N-cyclopentyl-N-{2-[3-(2-{[2-(dimethylamino)ethyl]amino}pyridin-4-yl)-5-methyl-1H-1,2,4-triazol-1-yl]ethyl}-2-naphthalen-1-ylacetamide] showed an IC50 of 0.05 to 1 µM.
Compound `Cc1nc(-c2ccnc(Nc3ccccc3)c2)nn1CCN(C(=O)Cc1cccc2ccccc12)C1CCCC1` [Entry 165, N-cyclopentyl-N-(2-{5-methyl-3-[2-(phenylamino)pyridin-4-yl]-1H-1,2,4-triazol-1-yl}ethyl)-2-naphthalen-1-ylacetamide] showed an IC50 of 0.05 to 1 µM.
Turning to `CCNc1cc(-c2nc(C)n(CCN(C(=O)Cc3cccc4ccccc34)C3CCCC3)n2)ccn1` [Entry 166, N-cyclopentyl-N-(2-{3-[2-(ethylamino)pyridin-4-yl]-5-methyl-1H-1,2,4-triazol-1-yl}ethyl)-2-naphthalen-1-ylacetamide], the IC50 was < 0.05 µM.
`CNc1cc(-c2nc(C)n(CCN(C(=O)Cc3cccc4ccccc34)C3CCCC3)n2)ccn1` [Entry 167, N-cyclopentyl-N-(2-{5-methyl-3-[2-(methylamino)pyridin-4-yl]-1H-1,2,4-triazol-1-yl}ethyl)-2-naphthalen-1-ylacetamide]: the IC50 is < 0.05 µM.
Consider `Cc1nc(-c2ccncc2)nn1CCN(C(=O)Cc1cccc2ccccc12)C1CC1` [Entry 168, N-cyclopropyl-N-[2-(5-methyl-3-pyridin-4-yl-1H-1,2,4-triazol-1-yl)ethyl]-2-naphthalen-1-ylacetamide], for which the IC50 was in the range of 0.05 to 1 µM.
For the compound `Cc1nc(-c2ccncc2)nn1CCN(CCN1CCCC1)C(=O)Cc1cccc2ccccc12` [Entry 169, N-[2-(5-methyl-3-pyridin-4-yl-1H-1,2,4-triazol-1-yl)ethyl]-2-naphthalen-1-yl-N-(2-pyrrolidin-1-ylethyl)acetamide], the IC50 was ≥ 10 µM.
Under `Cc1nc(-c2ccncc2)nn1CCN(CCN(C)C)C(=O)Cc1cccc2ccccc12` [Entry 170, N-[2-(dimethylamino)ethyl]-N-[2-(5-methyl-3-pyridin-4-yl-1H-1,2,4-triazol-1-yl)ethyl]-2-naphthalen-1-ylacetamide] stands 1 to 10 µM.
Regarding `Cc1nc(-c2ccncc2)nn1CCN(C(=O)Cc1cccc2ccccc12)C1CCOCC1` [Entry 171, N-[2-(5-methyl-3-pyridin-4-yl-1H-1,2,4-triazol-1-yl)ethyl]-2-naphthalen-1-yl-N-(tetrahydro-2H-pyran-4-yl)acetamide], the IC50 fell in the range of 0.05 to 1 µM.
In turn, `Cc1nc(-c2ccnc(NCc3ccccc3)c2)nn1CCN(C(=O)Cc1cccc2ccccc12)C1CCCC1` [Entry 172, N-cyclopentyl-N-[2-(5-methyl-3-{2-[(phenylmethyl)amino]pyridin-4-yl}-1H-1,2,4-triazol-1-yl)ethyl]-2-naphthalen-1-ylacetamide] came in with a half-maximal inhibitory concentration (IC50) of 0.05 to 1 µM.
For `CCCCNc1cc(-c2nc(C)n(CCN(C(=O)Cc3cccc4ccccc34)C3CCCC3)n2)ccn1` [Entry 173, N-(2-{3-[2-(butylamino)pyridin-4-yl]-5-methyl-1H-1,2,4-triazol-1-yl}ethyl)-N-cyclopentyl-2-naphthalen-1-ylacetamide], the IC50 was < 0.05 µM.
As to `Cc1nc(-c2ccnc(NCCN3CCOCC3)c2)nn1CCN(C(=O)Cc1cccc2ccccc12)C1CCCC1` [Entry 174, N-cyclopentyl-N-[2-(5-methyl-3-{2-[(2-morpholin-4-ylethyl)amino]pyridin-4-yl}-1H-1,2,4-triazol-1-yl)ethyl]-2-naphthalen-1-ylacetamide], the IC50 is < 0.05 µM.
For `COCCNc1cc(-c2nc(C)n(CCN(C(=O)Cc3cccc4ccccc34)C3CCCC3)n2)ccn1` [Entry 175, N-cyclopentyl-N-{2-[5-methyl-3-(2-{[2-(methyloxy)ethyl]amino}pyridin-4-yl)-1H-1,2,4-triazol-1-yl]ethyl}-2-naphthalen-1-ylacetamide], the IC50 was < 0.05 µM.
`Cc1nc(-c2ccnc(N)c2)nn1CCN(C(=O)Cc1cccc2ccccc12)C1CCCC1` [Entry 176, N-{2-[3-(2-aminopyridin-4-yl)-5-methyl-1H-1,2,4-triazol-1-yl]ethyl}-N-cyclopentyl-2-naphthalen-1-ylacetamide]: the IC50 was < 0.05 µM.
`Cc1nc(-c2ccncc2)nn1CCN(C(=O)Cc1cccc2ccccc12)C(C)C` [Entry 177, N-(1-methylethyl)-N-[2-(5-methyl-3-pyridin-4-yl-1H-1,2,4-triazol-1-yl)ethyl]-2-naphthalen-1-ylacetamide]: the IC50 is < 0.05 µM.
For `Cc1nc(-c2ccncc2)nn1CCN(CCN1CCCCC1)C(=O)Cc1cccc2ccccc12` [Entry 178, N-[2-(5-methyl-3-pyridin-4-yl-1H-1,2,4-triazol-1-yl)ethyl]-2-naphthalen-1-yl-N-(2-piperidin-1-ylethyl)acetamide], the IC50 was ≥ 10 µM.
As to `Cc1nc(-c2ccncc2)nn1CCN(C(=O)Cc1cccc2ccccc12)C1CCCCC1` [Entry 179, N-cyclohexyl-N-[2-(5-methyl-3-pyridin-4-yl-1H-1,2,4-triazol-1-yl)ethyl]-2-naphthalen-1-ylacetamide], the IC50 was < 0.05 µM.
Consider `Cc1nc(-c2ccncc2)nn1CCN(CC1CCCO1)C(=O)Cc1cccc2ccccc12` (stereo not shown) [Entry 180, N-[2-(5-methyl-3-pyridin-4-yl-1H-1,2,4-triazol-1-yl)ethyl]-2-naphthalen-1-yl-N-(tetrahydrofuran-2-ylmethyl)acetamide], for which the IC50 is 0.05 to 1 µM.
Take `Cc1nc(-c2ccnc(NC3CCCNC3)c2)nn1CCN(C(=O)Cc1cccc2ccccc12)C1CCCC1` (stereo not shown) [Entry 181, N-cyclopentyl-N-(2-{5-methyl-3-[2-(piperidin-3-ylamino)pyridin-4-yl]-1H-1,2,4-triazol-1-yl}ethyl)-2-naphthalen-1-ylacetamide]: the IC50 lay in the range of 0.05 to 1 µM.
In the case of `Cc1nc(-c2ccnc(N[C@@H]3CCNC3)c2)nn1CCN(C(=O)Cc1cccc2ccccc12)C1CCCC1` [Entry 182, N-cyclopentyl-N-[2-(5-methyl-3-{2-[(3R)-pyrrolidin-3-ylamino]pyridin-4-yl}-1H-1,2,4-triazol-1-yl)ethyl]-2-naphthalen-1-ylacetamide], the IC50 was in the range of 0.05 to 1 µM.
As for `Cc1nc(-c2ccnc(NCCN3CCCCC3)n2)nn1CCN(C(=O)Cc1cccc2ccccc12)C1CCCC1` [Entry 183, N-cyclopentyl-N-[2-(5-methyl-3-{2-[(2-piperidin-1-ylethyl)amino]pyrimidin-4-yl}-1H-1,2,4-triazol-1-yl)ethyl]-2-naphthalen-1-ylacetamide], the IC50 is < 0.05 µM.
Under `Cc1nc(-c2ccnc(NCc3ccccc3)n2)nn1CCN(C(=O)Cc1cccc2ccccc12)C1CCCC1` [Entry 184, N-cyclopentyl-N-[2-(5-methyl-3-{2-[(phenylmethyl)amino]pyrimidin-4-yl}-1H-1,2,4-triazol-1-yl)ethyl]-2-naphthalen-1-ylacetamide] stands 0.05 to 1 µM; under `Cc1nc(-c2cc(N)nc(Cl)c2)nn1CCN(C(=O)Cc1cccc2ccccc12)C1CCCC1` [Entry 185, N-{2-[3-(2-amino-6-chloropyridin-4-yl)-5-methyl-1H-1,2,4-triazol-1-yl]ethyl}-N-cyclopentyl-2-naphthalen-1-ylacetamide], 0.05 to 1 µM; under `Cc1nc(-c2cc(N)nc(N)c2)nn1CCN(C(=O)Cc1cccc2ccccc12)C1CCCC1` [Entry 186, N-cyclopentyl-N-{2-[3-(2,6-diaminopyridin-4-yl)-5-methyl-1H-1,2,4-triazol-1-yl]ethyl}-2-naphthalen-1-ylacetamide], 0.05 to 1 µM.
Consider `CCOc1cc(-c2nc(C)n(CCN(C(=O)Cc3cccc4ccccc34)C3CCCC3)n2)cc(N)n1` [Entry 187, N-(2-{3-[2-amino-6-(ethyloxy)pyridin-4-yl]-5-methyl-1H-1,2,4-triazol-1-yl}ethyl)-N-cyclopentyl-2-naphthalen-1-ylacetamide], for which the IC50 lay in the range of 1 to 10 µM.
